Measured values taken from patent US20190336489A1, “NON PEPTIDE HETEROBIVALENT MOLECULES FOR TREATING INFLAMMATORY DISEASES” (GLAXOSMITHKLINE INTELLECTUAL PROPERTY DEVELOPMENT LIMITED, priority 2017, published 2019).
Marks after values point to notes of the source that are not given here.

Experiments:
[1] = target: T1, CCR2 (Homo sapiens, UniProt P41597); assay: Antibody Dependent Cellular Cytotoxicity (ADCC) reporter assay, CCR2 target cells; type: cell-based; conditions: CHOK1 cells overexpressing CCR2; for EC50: Jurkat FcgRIIIa NFAT-luciferase reporter cells, EC50 class, read-out: ADCC potency; for ADCC efficacy: maximum signal:background (S/B)
T1 construct: expressed in transfected cells; host or cells: CHOK1
T1 sequence (P41597 whole entry, species assumed): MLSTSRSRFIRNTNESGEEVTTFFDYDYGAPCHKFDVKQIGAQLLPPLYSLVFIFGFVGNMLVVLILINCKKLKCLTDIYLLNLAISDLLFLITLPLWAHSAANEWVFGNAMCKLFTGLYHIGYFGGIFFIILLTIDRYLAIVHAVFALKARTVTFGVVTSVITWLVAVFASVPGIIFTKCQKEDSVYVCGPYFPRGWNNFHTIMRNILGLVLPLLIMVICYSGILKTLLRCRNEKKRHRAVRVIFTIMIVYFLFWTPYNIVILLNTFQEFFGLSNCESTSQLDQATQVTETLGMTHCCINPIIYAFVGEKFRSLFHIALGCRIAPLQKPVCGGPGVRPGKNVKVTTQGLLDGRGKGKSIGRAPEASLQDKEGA
Source text: (§1) The compounds described herein have been characterized in an ADCC reporter assay (see Section 1.2 ADCC reporter for protocol). […] Furthermore, the assay also confirms that this formed complex can engage and activate the Fc receptors on immune cells. Lastly, the assay provides both potency (EC50) and efficacy (signal to background ratio) for each compound in a dose dependant manner.
(§2) This assay has four components • 1) Heterobivalent Compound consisting of a targeting ligand and a hapten connected by a linker (ranging from 10 uM-1 pM) • 2) A hapten antibody with functional Fc domain (typical concentrations are 0.01 ug/mL-200 ug/mL) • 3) Target cells—CHOK1 cells engineered to overexpress either CCR1, CCR2, or CCR3, or CEMNKR cells engineered to overexpress CCR5 (typically 1000-20,000 cells per well) • 4) Reporter cells—Jurkat cells engineered to express FcgRIIIa (ADCC reporter assay) and with a reporter gene (luciferase) under the control of the NFAT promoter (typically 3000-75,000 cells per well)
(§3) Reagents are combined in final volume of 20 uL in 384-well tissue culture treated plated.
(§4) All components are incubated together for ˜12-18 hours. Add BioGlo Detection reagent (from Promega) to lyse the cells and provide substrate for the luciferase reporter protein. Signal is measured on a microplate reader capable of measuring luminescence. Signal:Background is calculated by dividing the signal of a test well by the signal obtained when no compound is included in the assay. EC50 calculations were done using Graphpad Prism Software, specifically a nonlinear regression curve fit (Y=Bottom+(Top−Bottom)/(1+10^((Log EC50−X)*HillSlope)))

[2] = target: T2, CCR3 (Homo sapiens, UniProt P51677); assay: Antibody Dependent Cellular Cytotoxicity (ADCC) reporter assay, CCR3 target cells; type: cell-based; conditions: for EC50 / ADCC efficacy: CHOK1 cells overexpressing CCR3; for EC50: Jurkat FcgRIIIa NFAT-luciferase reporter cells, EC50 class, read-out: ADCC potency; for ADCC efficacy: maximum signal:background (S/B)
T2 construct: expressed in transfected cells; host or cells: CHOK1
T2 sequence (P51677 1-355): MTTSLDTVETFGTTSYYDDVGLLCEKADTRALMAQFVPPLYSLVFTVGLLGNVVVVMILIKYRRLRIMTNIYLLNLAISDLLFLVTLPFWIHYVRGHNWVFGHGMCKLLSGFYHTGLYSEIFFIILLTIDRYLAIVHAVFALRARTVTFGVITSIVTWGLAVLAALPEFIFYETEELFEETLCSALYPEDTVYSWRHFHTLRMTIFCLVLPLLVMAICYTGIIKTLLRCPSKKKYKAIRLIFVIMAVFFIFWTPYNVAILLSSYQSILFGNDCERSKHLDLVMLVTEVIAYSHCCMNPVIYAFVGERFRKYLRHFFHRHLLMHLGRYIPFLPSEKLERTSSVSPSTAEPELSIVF
Source text: as §1, §2, §3, §4

| Structure (SMILES) | EC50 [1] [nM] | ADCC efficacy [1] | efficacy signal ([2]; ADCC reporter assay) | potency ([2]; ADCC reporter assay) | EC50 [2] [nM] | ADCC efficacy [2] |
| --- | --- | --- | --- | --- | --- | --- |
| CC(C)(C)N1CCNC(C(=O)N2CCN(C(=O)Nc3nc(C(F)(F)F)c(Cl)s3)C(CCOC(=O)NCCOCCOCCOCCOCCOCCOCCOCCOCCOCCNc3ccc([N+](=O)[O-])cc3[N+](=O)[O-])C2)C1 (mixture of isomers) [Compound 18, 2-(4-(4-(Tert-butyl)piperazine-2-carbonyl)-1-((5-chloro-4-(trifluoromethyl)thiazol-2-yl)carbamoyl)piperazin-2-yl)ethyl (29-((2,4-dinitrophenyl)amino)-3,6,9,12,15,18,21,24,27-nonaoxanonacosyl)carbamate] | < 1 | +++^e (Maximum Signal:Background > 10 = +++) | robust | nanomolar range |  |  |
| O=C(CCC(=O)N[C@H]1CC[C@H](NC(=O)c2ccc(CNC(=O)NC[C@H]3CN(Cc4ccc(Cl)c(Cl)c4)CCO3)cc2)CC1)NCCCOCCOCCOCCCNc1ccc([N+](=O)[O-])cc1[N+](=O)[O-] [Compound 23, N1-((Trans)-4-(4-((3-(((S)-4-(3,4-Dichlorobenzyl)morpholin-2-yl)methyl)ureido)methyl)benzamido)cyclohexyl)-N4-(3-(2-(2-(3-((2,4-dinitrophenyl)amino)propoxy)ethoxy)ethoxy)propyl)succinamide] |  |  |  |  | < 1 | +++^f (Maximum S:B > 20 = +++) |
| O=C(NCc1ccc(C(=O)NCCCOCCOCCOCCCNC(=S)Nc2ccc(-c3c4ccc(=O)cc-4oc4cc(O)ccc34)c(C(=O)O)c2)cc1)NC[C@H]1CN(Cc2ccc(Cl)c(Cl)c2)CCO1 [Compound 22, (S)-5-(3-(1-(4-((3-((4-(3,4-Dichlorobenzyl)morpholin-2-yl)methyl)ureido)methyl)phenyl)-1-oxo-6,9,12-trioxa-2-azapentadecan-15-yl)thioureido)-2-(6-hydroxy-3-oxo-3H-xanthen-9-yl)benzoic acid] |  |  |  |  | 1 to 10 | +++^f (Maximum S:B > 20 = +++) |
| O=C(NCc1ccc(C(=O)NCCCOCCOCCOCCCNc2ccc([N+](=O)[O-])cc2[N+](=O)[O-])cc1)NC[C@@H]1CN(Cc2ccc(Cl)c(Cl)c2)CCO1 [Compound 21, (R)-4-((3-((4-(3,4-dichlorobenzyl)morpholin-2-yl)methyl)ureido)methyl)-N-(3-(2-(2-(3-((2,4-dinitrophenyl)amino)propoxy)ethoxy)ethoxy)propyl)benzamide] |  |  |  |  | < 1 | +++^f (Maximum S:B > 20 = +++) |
| CCCCN1C(=O)[C@@H]([C@H](O)C2CCCCC2)NC(=O)C12CCN(Cc1ccc(Oc3ccc(C(=O)NCCOCCOCCOCCOCCOCCOCCOCCOCCOCCNC(=S)Nc4ccc5c(c4)C(=O)OC54c5ccc(O)cc5Oc5cc(O)ccc54)cc3)cc1)CC2 [Compound 25, 4-(4-(((R)-1-butyl-3-((R)-cyclohexyl(hydroxy)methyl)-2,5-dioxo-1,4,9-triazaspiro[5.5]undecan-9-yl)methyl)phenoxy)-N-(1-((3′,6′-dihydroxy-3-oxo-3H-spiro[isobenzofuran-1,9′-xanthen]-5-yl)amino)-1-thioxo-5,8,11,14,17,20,23,26,29-nonaoxa-2-azahentriacontan-31-yl)benzamide] |  |  |  |  | 1 to 10 | +++^f (Maximum S:B > 20 = +++) |
| Cc1ccc2c(c1)NC[C@]21CCN(C[C@@H](O)C2CCN(C(=O)c3cc4cc(OCCOCCOCCOCCNC(=O)CCC(=O)NCCOCCOCCOCCNc5ccc([N+](=O)[O-])cc5[N+](=O)[O-])ccc4[nH]3)CC2)C[C@H]1C [Compound 8, N1-(2-(2-(2-(2-((2-(4-((S)-2-((3S,3′S)-3′,6-Dimethylspiro[indoline-3,4′-piperidin]-1′-yl)-1-hydroxyethyl)piperidine-1-carbonyl)-1H-indol-5-yl)oxy)ethoxy)ethoxy)ethoxy)ethyl)-N4-(2-(2-(2-(2-((2,4-dinitrophenyl)amino)ethoxy)ethoxy)ethoxy)ethyl)succinamide] | 10 to 100 | +++^e (Maximum Signal:Background > 10 = +++) |  |  |  |  |
